The test concerns MDA-MB-468 breast. Briefly: growth of human tumour cells (NCI), 48 h.

This passage reports GI50 and TGI results from PubChem BioAssay (NCI).

Structures are written as SMILES.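 Protocol summary: plate cells (96-well), add compound at 5 concentrations, incubate 48 h, interpolate endpoints linearly. GI50 is the concentration that inhibits growth by half. The concentration for full growth arrest is given as TGI.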

As for `CC(C)(C)NC/C(=C\c1ccccc1)C(=O)c1ccccc1`, the GI50 is 713 nM and the TGI came to 2180 nM.
In the same order, the values of `CCOc1c(C#N)c2c(N)ncnc2n1C1OC(CO)C(O)C1O` (stereo unspecified) are 1750 nM and 5980 nM.
As for `O=C(Cn1c(C(=O)c2ccccc2)nc2ccccc21)c1ccc(F)cc1`, the GI50 is 2020 nM and the TGI was determined as 16600 nM.
For `COc1cc(-c2ccc(NC(=O)NC3CC3)c(OC)c2)ccc1NC(=O)NC1CC1` the same measures were greater than 100000 nM and greater than 100000 nM.
For `CC[C@@H](C)Nc1cc(C(=O)NC2CC3CCC(C2)N3c2ccc(C(=O)C3CC3)cn2)c(C)cc1C(N)=O` (stereo partly specified) the same measures were 18.9 nM and 83.8 nM.
For `CCCCCCN(C)Cc1ccc(OCCOc2ccc(CN(C)CCCCCC)cc2)cc1` the same measures were 1160 nM and 2480 nM.
As for `O=C(Nc1nc(-c2ccc(Cl)cc2)nc2c1sc(=S)n2-c1ccccc1)C(F)(F)F`, the GI50 is 3790 nM and the TGI was 20500 nM.
In the same order, the values of `COC(=O)c1ccc2c(c1)c1c(C)c3ccncc3c(C)c1n2C` are 767 nM and 15200 nM.
For `CN1CCN(Cc2ccc(NC(=O)c3cncc(C#Cc4cnn5ccccc45)c3)cc2C(F)(F)F)CC1` the same measures were 965 nM and 2080 nM.
In the same order, the values of `C/C=C(/C)C(=O)OC1C=C(CO)C(=O)C(OC(=O)C(C)(O)C(C)Cl)C1C(C)C` (stereo unspecified) are 1050 nM and 2800 nM.
`O=C(NNC(=S)Nc1ccccc1)c1ccccn1`: the GI50 was 2840 nM and the TGI came out at 90900 nM.
In the case of `CC(=O)C1CCC2C3CC=C4CC(SC(=N)N)CCC4(C)C3CCC12C` (stereo unspecified), the GI50 is 1540 nM and the TGI is 2900 nM.
`COc1cc(/C=C\c2cc(/C=C\c3ccc(O)c(OC)c3)n(C(=O)CNc3ccc(Cl)cc3)n2)ccc1O`: the GI50 is 3170 nM and the TGI came to 9690 nM.
Take `O=C(Nc1cccc(Cl)c1)c1cc(N=Nc2ccc([N+](=O)[O-])cc2Cl)ccc1O`: the GI50 is 2910 nM and the TGI is greater than 100000 nM.
In the same order, the values of `O=C(Nc1ccc2c(c1)OCO2)C(=O)c1c[nH]c2cc(F)ccc12` are 5700 nM and 67900 nM.
In the case of `Oc1ccc(CSc2nnc(-c3ccc(Cl)cc3)o2)c2cccnc12`, the GI50 was 2470 nM and the TGI was greater than 100000 nM.
In the same order, the values of `CCOC(=O)c1csc(NC(=O)COc2cccc(/C=C3\CSc4ccccc4C3=O)c2)n1` are 66.1 nM and 185 nM.
For `Cc1nnc(-c2ccc(C)c(-c3ccc(C(=O)NCc4ccc(Cl)cc4)cc3)c2)o1` the same measures were 2910 nM and 15100 nM.
In the same order, the values of `Nc1nc(N)c2c(n1)NC(c1ccc(Cl)cc1)CC(c1ccc(Nc3nc(NCCO)nc(Nc4ccc(Cl)cc4)n3)cc1)=N2` (stereo unspecified) are 1390 nM and 2790 nM.
In the case of `C=C1CCC2C3(C)COC(c4ccc(Cl)cc4)OC3CCC2(C)C1/C=C/C1=CCOC1=O` (stereo unspecified), the GI50 is 502 nM and the TGI is 6250 nM.
For `COc1ccc(/C=C\c2cc(OC)c(OC)c(OC)c2)c(O)c1O` the same measures were 74.1 nM and 21400 nM.
For `O=C(Nc1cccnc1)c1ccc2ccc3ccc(C(=O)Nc4cccnc4)nc3c2n1` the same measures were 69.7 nM and 442 nM.
For `CC(C)CCC(=O)[C@@H](C)[C@H]1[C@@H](OC2OCC(O)C(O)C2NS(C)(=O)=O)C[C@H]2[C@@H]3CC=C4C[C@@H](O)CC[C@]4(C)[C@H]3CC[C@]12C` (stereo partly specified) the same measures were 3380 nM and 11200 nM.
On to `CC[C@]12C=CCN3CC[C@@]4(c5ccc(OC)cc5N(C)[C@H]4[C@@](O)(C(=O)OC)[C@@H]1OC(=O)CCC(=O)N[C@H](Cc1c[nH]c4ccccc14)C(=O)OC)[C@@H]32`, for which the GI50 was 1640 nM and the TGI came to 3140 nM.
For `O=S(=O)(Nc1ccc2ccccc2c1)c1ccc(-c2cnc(C3CC3)o2)cc1` the same measures were 327 nM and 12000 nM.
In the same order, the values of `CC1(O)Cc2c(O)c3c(c(O)c2CC1O)C(=O)C=CC3=O` (stereo unspecified) are 553 nM and 1930 nM.
For `COc1cc2ncn(-c3cc(OCc4ccccc4C(F)(F)F)c(C(C)=O)s3)c2cc1OC` the same measures were greater than 23300 nM and greater than 25000 nM.
Turning to `CC(C)(C)c1ccc(O)c(CN(Cc2cc(C(C)(C)C)ccc2O)C2CCCCC2)c1`, the GI50 is 4400 nM and the TGI was 19200 nM.
